Data set [1] is described as follows: Kinetic solubility analysis. The class given is physicochemical. To be noted: 1× PBS, 24.2 °C, aqueous buffer, kinetic from dmso stock; pH 7.4 PBS, 1% DMSO, 24-hour incubation at ambient temperature. The procedure, abridged:
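Compounds from 10 mM DMSO stocks were incubated in 0.1 N HCl or 1× PBS pH 7.4 (1.0% DMSO, 100 μM maximum theoretical) for 24 h at 24.2-27.5 °C, then vacuum filtered. Filtrates were quantified in μM by chemiluminescent nitrogen detection against a calibration curve, corrected for background nitrogen; values for adjacent ring-nitrogen compounds were raised ~25%.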

For another data set, the system named is PBMCs. In words: TFV-DP formation in peripheral blood mononuclear cells (PBMCs). It is filed as in vitro ADME, human. To be noted: 1 μM compound, 2 hrs at 37° C., 50% serum, activated PBMCs; average of at least two independent experiments. How it is done:
Example 109: TFV-DP Formation in Peripheral Blood Mononuclear Cells (PBMCs)
Compounds were tested in a 96-well assay format for the level of TFV-DP loading in PBMCs in the presence of human serum. PBMCs were activated with 100 units/mL recombinant human […] and […] phytohaemagglutinin (PHA) for 36 hrs. After activation, PBMCs (2 million) were incubated with compounds (1 μM) and cell culture media with 50% serum in a 96 well plate for 2 hrs at 37° C. Cells were transferred to a 96 well deep block plate and spun down. Liquid was removed, and cells were washed 2× with 1 mL of 0.9% saline with spin downs between washes. After a final wash and liquid removal, 500 μL of MeOH+200 nM C1-ATP+200 nM [adenine-^13Cs]-tenofovir diphosphate (tetra ammonium salt) was added and thoroughly mixed with the cells. The plate was then spun down and 450 μL of sample was transferred to a new 96 well plate. Supernatants were then evaporated, reconstituted in 80 μl of 1 mM ammonium phosphate and thoroughly vortexed. Blank samples were pooled for serial dilution to construct calibration standards for TFV, TFV-DP and TFV-TP in pmol/million cells. Samples were then transferred to a short-well 96 well plate, centrifuged and injected on an LC-MS/MS for quantification. Values were reported in μM units using an intracellular volume of […].

Another data set concerns HIV-1 (IIIB). In words: Antiviral (HIV) assay in MT-4 cells. To be noted: HIV-1 IIIB in MT-4 cells, 5 days, Cell Titer Glo; average of at least two independent experiments; read-out: MT4 HIV EC50. The class given is cell-based. How it is done:
Example 104: Antiviral (HIV) Assay in MT-4 Cells
Compounds were tested in a high-throughput 384-well assay format for their ability to inhibit the replication of HIV-1 (IIIB) in MT-4 cells. Compounds were serially diluted (1:3) in DMSO on 384-well polypropylene plates and further diluted 200-fold into complete RPMI media (10% FBS, 1% P/S) using the Biotek Micro Flow and Labcyte ECHO acoustic dispenser. Each plate contained up to 8 test compounds, with negative (no drug) and positive (5 μM AZT) controls. MT-4 cells were pre-treated with 10 μL of either RPMI (mock-infected) or a fresh 1:250 dilution of HIV-1 IIIB concentrated virus stock. Infected and uninfected MT-4 cells were further diluted in complete RPMI media and added to each plate using a Micro Flow dispenser. After 5 days incubation in a humidified and temperature-controlled incubator (37° C.), Cell Titer Glo (Promega) was added to the assay plates and chemiluminescence read using an Envision plate-reader. EC50 values were defined as the compound concentration that causes a 50% decrease in luminescence signal and were calculated using a sigmoidal dose-response model to generate curve fits and are shown in Table 1.
A general note: In ATP-based viability assays light output follows the ATP content of the culture.

Data set [2] can be described thus: Cytotoxicity assay in MT-4 cells. It is filed as cell-based. To be noted: human, uninfected MT-4 cells, average of at least two independent experiments, read-out: MT4 CC50. A digest of the protocol: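 Uninfected MT-4 cells were incubated 5 days at 37 °C with 1:3 serially diluted compound in RPMI (10% FBS), with 10 μM puromycin as baseline cytotoxicity. Viability was read by CellTiter-Glo luminescence. Values are concentrations giving 50% luminescence decrease, from sigmoidal dose-response fits.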

≈ marks a conversion by molar mass, not a printed value.

The solubility (kinetic) is the concentration staying in solution when a stock, usually in DMSO, is diluted into the medium. Compound `C[C@H](Cn1cnc2c(N)ncnc21)OCP(=O)(NC(C)(C)C(=O)OC1CCOCC1)NC(C)(C)C(=O)OC1CCOCC1` [Example 24, Bis(tetrahydro-2H-pyran-4-yl) 2,2′-(((((1-(6-amino-9H-purin-9-yl)propan-2-yl)oxy)methyl)phosphoryl)bis(azanediyl))(R)-bis(2-methylpropanoate)] showed a solubility (kinetic) at 24 h in data set [1] of 69 µg/mL (≈ 110 µM). The “Average PBMC TFV-DP (μM)” value in the data set on PBMCs is on record as “BLQ”.
In general, EC50 refers to the concentration that produces a half-maximal response. Consider `CC(C)CCCOC(=O)C(C)(C)NP(=O)(CO[C@H](C)Cn1cnc2c(N)ncnc21)NC(C)(C)C(=O)OCCCC(C)C` [Example 67, Bis(4-methylpentyl) 2,2′-(((((1-(6-amino-9H-purin-9-yl)propan-2-yl)oxy)methyl)phosphoryl)bis(azanediyl))(R)-bis(2-methylpropanoate)], for which the EC50 with HIV-1 (IIIB) is 0.008 µM. Also, the “Average PBMC TFV-DP” value in the data set with PBMCs came to 5.5 µM.
A word on the CC50: it is the concentration that lowers cell viability or growth by half. As for `CCCCCCOC(=O)C(C)(C)NP(=O)(CO[C@H](C)Cn1cnc2c(NC(=O)CC(C)(C)CC(=O)OCc3oc(=O)oc3C)ncnc21)NC(C)(C)C(=O)OCCCCCC` [Example 102, Dihexyl 2,2′-(((((1-(6-(3,3-dimethyl-5-((5-methyl-2-oxo-1,3-dioxol-4-yl)methoxy)-5-oxopentanamido)-9H-purin-9-yl)propan-2-yl)oxy)methyl)phosphoryl)bis(azanediyl))(R)-bis(2-methylpropanoate)], in data set [2], the CC50 at 5 days came out at 45.1 µM. The compound further displayed a solubility (kinetic) at 24 h in data set [1] of 10 µg/mL (≈ 11.4 µM). In addition, the “Average PBMC TFV-DP (μM)” value in the data set with PBMCs was “BLQ”.
